Results as given in US20100144743A1, “COMPOSITIONS AND METHODS FOR INHIBITION OF TYROSINE KINASES” (BOARD OF REGENTS, THE UNIVERSITY OF TEXAS SYSTEM, priority 2006, published 2010).
Values joined by “and” are separate entries in the source; they are usually repeats but may differ in a detail not shown here. Equal entries are not always repeated. Where two headings read alike, the source gives them in different places.

Assays:
HIF-1 = HIF-1 GFP/DsRFP expression (G/R) in C6#4 cells stimulated by CoCl2; format: cell-based

SMILES | G/R:WST-1 Ratio Mean (HIF-1) | EC50 (HIF-1; read-out: G/R (EC-50)) [µM] | EC50 (HIF-1; read-out: G/R (EC-50) 1 ex) [µM] | EC50 (HIF-1; read-out: G/R (EC-50) 2 ex) [µM] | EC50 (HIF-1; read-out: G/R (EC-50) 3 ex) [µM] | EC50 (HIF-1; read-out: G/R (REC-50) Mean) [µM] | EC50 (C6#4 cells; read-out: WST-1 (EC-50)) [µM] | EC50 (C6#4 cells; read-out: WST-1 (EC-50) 1 ex) [µM] | EC50 (C6#4 cells; read-out: WST-1 (EC-50) 2 ex) [µM] | EC50 (C6#4 cells; read-out: WST-1 (EC-50) 3 ex) [µM] | EC50 (C6#4 cells; read-out: WST-1 (EC-50) Mean) [µM] | EC50 (HIF-1; read-out: EC 50 G/R) [µM] | cytotoxicity (C6#4 cells) | EC50 (HIF-1; C6#4 cells, experiment 1, read-out: G/R (EC-50) 1 ex) [µM] | EC50 (HIF-1; C6#4 cells, experiment 2, read-out: G/R (EC-50) 2 ex) [µM] | EC50 (HIF-1; C6#4 cells, experiment 3, read-out: G/R (EC-50) 3 ex) [µM] | influence on C6#4 cells (C6#4 cells; concentration 200 μM) | EC50 (C6#4 cells; read-out: WST-1 (EC-50) 1 ex, C6#4 cells, experiment 1) [µM] | EC50 (HIF-1; C6#4 cells, 24 h exposure, GFP normalized to RFP, Table 2, read-out: G/R (EC-50)) [µM]
c1ccc(Oc2ccc(Nc3nccn4c(-c5ccc6[nH]ccc6c5)cnc34)cc2)cc1 [LG2-7] | 5.6 and 5.633 | 9.1 | 14.2 | 9.34 | 3.89 | 9.15 | 35.2 | 23 | 39.9 | 42.7 | 35.2 | – | – | – | – | – | – | – | –
CN(C)CCNC(=O)c1ccc(-c2cnc3c(Nc4ccc(Oc5ccccc5)cc4)nccn23)cc1 [LG2-11] | 2.2 and 2.237 | – | 10.9 | 15.7 | 6.07 | – | 19.6 | 18.1 | 16.6 | 24.2 | 19.6 | – | – | – | – | – | – | – | –
COc1ccc(Nc2nccn3c(-c4cccc(C(N)=O)c4)cnc23)cc1 [LG2-13] | – | – | – | 6.9 | 8.97 | – | – | 7.08 | 101 | 99.7 | – | 7.95 | doesn't have cytotoxicity | – | – | – | – | – | –
COc1cc(-c2cnc3c(Nc4ccccc4)nccn23)ccc1O [LG2-62] | 1.5 and 1.533 | 18.9 | 13.5 | 24.4 | 18.9 | 18.9 | 30.1 | 19.5 | 43.9 | 27.1 | 30.1 | – | – | – | – | – | – | – | –
CC(C)c1ccc(Nc2nccn3c(-c4cccc(O)c4)cnc23)cc1 [LG2-65] | – | – | – | – | – | – | – | – | – | – | – | – | – | 9070 | 3860 | 5670 | doesn't influence | 56.4 | –
COc1cc(Nc2nccn3c(-c4cccc(C(C)=O)c4)cnc23)cc(OC)c1OC [LG2-75] | 1.2 and 1.233 | 14.8 | 4.37 | 16.3 | 23.7 | 14.8 | 16.8 | 7.04 | 16.4 | 26.8 | 16.8 | – | – | – | – | – | – | – | –
CC(=O)c1cccc(-c2cnc3c(Nc4ccc(N5CCOCC5)cc4)nccn23)c1 [LG2-81] | 3.7 | 10.5 | 8.66 | 12.2 | 10.5 | 10.5 | 38.8 | 32.2 | 40.2 | 43.9 | 38.8 | – | – | – | – | – | – | – | –
COc1cccc(-c2cnc3c(Nc4ccccc4)nccn23)c1 [LG2-85] | 2.0 and 2.033 | 23.5 | 23.9 | 23.1 | 23.5 | 23.5 | 48.1 | 34.8 | 41.6 | 67.9 | 48.1 | – | – | – | – | – | – | – | –
c1ccc2c(-c3cnc4c(Nc5ccc6[nH]ccc6c5)nccn34)cccc2c1 [LG2-89] | 1.4 and 1.383 | 27.9 | 13.7 | 42.7 | 27.2 | 27.9 | 35.4 | 21.4 | 40.4 | 44.4 | 35.4 | – | – | – | – | – | – | – | –
O=C(NCCO)c1cccc(-c2cnc3c(NCc4cccs4)nccn23)c1 [LG2-98] | – | – | – | – | – | – | – | – | – | – | – | – | – | – | – | – | – | – | 20.4
COc1cc(OC)cc(-c2cnc3c(NCC4CC4)nccn23)c1 [LG2-102] | – | 37.4 | – | – | – | – | 52.7 | – | – | – | – | – | – | – | – | – | – | – | –
